Source: ChEMBL document CHEMBL5338754, “Identification of Binding Sites in the Nucleotide-Binding Domain of P-Glycoprotein for a Potent and Nontoxic Modulator, the Amine-Containing Monomeric Flavonoid FM04” (J Med Chem, 2023)

What was measured:
[1] = biological target: ATP-dependent translocase ABCB1 (Homo sapiens, UniProt P08183, T1226Y); test: Negative allosteric modulator activity at human P-gp T1226Y mutant expressed in HEK293FT cells assessed as reversal of P-gp mediated PTX resistance by measuring sensitivity fold change incubated for 5 days by MTS assay; assay type: cell-based; details: 120 h, time 5 day
[2] = biological target: T1, ATP-dependent translocase ABCB1 (Homo sapiens, UniProt P08183, Q1193A); test: Negative allosteric modulator activity at human P-gp Q1193A mutant expressed in HEK293FT cells assessed as reversal of P-gp mediated PTX resistance by measuring sensitivity fold change incubated for 5 days by MTS assay; assay type: cell-based; details: 120 h, time 5 day
T1 sequence (P08183 whole entry Q1193A): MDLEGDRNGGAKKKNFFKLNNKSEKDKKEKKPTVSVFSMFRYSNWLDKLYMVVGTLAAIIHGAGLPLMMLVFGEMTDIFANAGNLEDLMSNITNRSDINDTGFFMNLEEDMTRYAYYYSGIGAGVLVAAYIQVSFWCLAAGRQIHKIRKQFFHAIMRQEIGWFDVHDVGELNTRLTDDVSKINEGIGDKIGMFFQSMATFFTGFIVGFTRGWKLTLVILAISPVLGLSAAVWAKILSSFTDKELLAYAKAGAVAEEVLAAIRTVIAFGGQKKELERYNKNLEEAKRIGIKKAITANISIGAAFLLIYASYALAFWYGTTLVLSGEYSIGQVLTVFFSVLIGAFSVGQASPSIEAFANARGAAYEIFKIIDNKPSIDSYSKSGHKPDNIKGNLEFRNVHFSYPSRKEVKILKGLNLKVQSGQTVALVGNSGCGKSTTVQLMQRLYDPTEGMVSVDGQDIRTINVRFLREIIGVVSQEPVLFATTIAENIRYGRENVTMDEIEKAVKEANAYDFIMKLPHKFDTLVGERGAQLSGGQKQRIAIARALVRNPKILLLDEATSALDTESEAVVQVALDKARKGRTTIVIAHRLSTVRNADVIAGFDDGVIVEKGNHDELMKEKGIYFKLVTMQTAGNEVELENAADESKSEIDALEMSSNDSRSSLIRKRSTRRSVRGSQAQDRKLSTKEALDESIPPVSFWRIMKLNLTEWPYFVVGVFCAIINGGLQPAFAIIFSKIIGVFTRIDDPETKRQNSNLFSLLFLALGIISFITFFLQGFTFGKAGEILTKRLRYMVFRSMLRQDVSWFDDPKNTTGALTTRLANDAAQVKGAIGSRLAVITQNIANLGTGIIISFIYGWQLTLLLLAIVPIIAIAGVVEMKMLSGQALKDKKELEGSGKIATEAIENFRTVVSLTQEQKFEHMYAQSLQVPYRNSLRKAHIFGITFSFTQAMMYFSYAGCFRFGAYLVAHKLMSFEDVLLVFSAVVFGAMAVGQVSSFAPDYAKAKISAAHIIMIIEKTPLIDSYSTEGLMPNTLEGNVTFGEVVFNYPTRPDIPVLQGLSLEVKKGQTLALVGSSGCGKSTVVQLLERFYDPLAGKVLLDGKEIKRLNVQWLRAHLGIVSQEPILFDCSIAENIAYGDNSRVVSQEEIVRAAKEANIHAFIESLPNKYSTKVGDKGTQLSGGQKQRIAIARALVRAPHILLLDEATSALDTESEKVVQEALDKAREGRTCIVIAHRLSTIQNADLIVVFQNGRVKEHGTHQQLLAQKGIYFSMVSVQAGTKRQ

[3] = biological target: T2, ATP-dependent translocase ABCB1 (Homo sapiens, UniProt P08183, Q1193C); test: Activation of P-gp ATPase activity in human P-gp Q1193C mutant expressed in HEK293FT cell microsomes assessed as fold change of ATPase activity at 20 uM incubated for 1 hr in presence of ATP by Glo-luminescence based microplate reader assay relative to DMSO; design: species or system Microsome
T2 sequence (P08183 whole entry Q1193C): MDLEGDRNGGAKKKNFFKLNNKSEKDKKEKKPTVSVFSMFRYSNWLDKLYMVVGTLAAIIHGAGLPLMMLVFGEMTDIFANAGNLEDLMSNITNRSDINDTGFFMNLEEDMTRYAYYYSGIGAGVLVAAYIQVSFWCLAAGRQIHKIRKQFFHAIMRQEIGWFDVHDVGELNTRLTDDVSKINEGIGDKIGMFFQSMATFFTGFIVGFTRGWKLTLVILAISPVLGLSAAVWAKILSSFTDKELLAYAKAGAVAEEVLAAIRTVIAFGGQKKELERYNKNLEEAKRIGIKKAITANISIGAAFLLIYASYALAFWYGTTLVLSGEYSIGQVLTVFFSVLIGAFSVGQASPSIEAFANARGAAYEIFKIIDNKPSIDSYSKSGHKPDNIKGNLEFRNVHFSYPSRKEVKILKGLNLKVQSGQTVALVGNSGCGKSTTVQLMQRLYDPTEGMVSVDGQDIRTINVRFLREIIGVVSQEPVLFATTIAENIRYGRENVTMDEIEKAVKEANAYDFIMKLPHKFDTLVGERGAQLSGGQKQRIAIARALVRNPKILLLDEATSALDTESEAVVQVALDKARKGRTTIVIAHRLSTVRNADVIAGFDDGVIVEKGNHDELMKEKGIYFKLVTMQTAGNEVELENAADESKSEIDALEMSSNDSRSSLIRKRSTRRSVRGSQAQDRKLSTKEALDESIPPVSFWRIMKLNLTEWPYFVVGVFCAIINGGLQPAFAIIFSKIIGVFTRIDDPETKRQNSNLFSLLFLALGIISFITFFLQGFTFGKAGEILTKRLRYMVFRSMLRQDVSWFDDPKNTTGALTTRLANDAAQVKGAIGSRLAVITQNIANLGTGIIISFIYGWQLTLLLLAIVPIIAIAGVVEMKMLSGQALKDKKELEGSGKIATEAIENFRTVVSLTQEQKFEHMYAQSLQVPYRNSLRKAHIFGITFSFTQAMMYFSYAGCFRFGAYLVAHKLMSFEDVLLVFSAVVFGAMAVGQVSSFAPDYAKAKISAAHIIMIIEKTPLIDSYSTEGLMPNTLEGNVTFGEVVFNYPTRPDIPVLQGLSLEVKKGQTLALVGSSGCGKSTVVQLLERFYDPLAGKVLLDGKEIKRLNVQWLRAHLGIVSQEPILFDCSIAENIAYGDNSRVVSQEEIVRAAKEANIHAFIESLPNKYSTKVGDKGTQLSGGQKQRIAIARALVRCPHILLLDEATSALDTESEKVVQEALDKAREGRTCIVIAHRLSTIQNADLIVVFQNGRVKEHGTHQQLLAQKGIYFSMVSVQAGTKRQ

[4] = biological target: ATP-dependent translocase ABCB1 (Homo sapiens, UniProt P08183, T1226F); test: Negative allosteric modulator activity at human P-gp T1226F mutant expressed in HEK293FT cells assessed as fold change in intracellular doxorubicin accumulation using doxorubicin as substrate at 1 uM incubated for 150 mins by microplate reader assay relative to DMSO; assay type: cell-based; details: 2.5 h
[5] = biological target: ATP-dependent translocase ABCB1 (Homo sapiens, UniProt P08183, Q1193K); test: Negative allosteric modulator activity at human P-gp Q1193K mutant expressed in HEK293FT cells assessed as reversal of P-gp mediated PTX resistance by measuring sensitivity fold change incubated for 5 days by MTS assay; assay type: cell-based; details: 120 h, time 5 day
[6] = biological target: T3, ATP-dependent translocase ABCB1 (Homo sapiens, UniProt P08183, L1113A); test: Negative allosteric modulator activity at human P-gp L1113A mutant expressed in HEK293FT cells assessed as fold change in intracellular doxorubicin accumulation using doxorubicin as substrate at 1 uM incubated for 150 mins by microplate reader assay relative to DMSO; assay type: cell-based; details: 2.5 h
[7] = biological target: T1, ATP-dependent translocase ABCB1; test: Negative allosteric modulator activity at human P-gp Q1193A mutant expressed in HEK293FT cells assessed as fold change in intracellular doxorubicin accumulation using doxorubicin as substrate at 1 uM incubated for 150 mins by microplate reader assay relative to DMSO; assay type: cell-based; details: 2.5 h
[8] = biological target: T4, ATP-dependent translocase ABCB1 (Homo sapiens, UniProt P08183, H1195A); test: Negative allosteric modulator activity at human P-gp H1195A mutant expressed in HEK293FT cells assessed as fold change in intracellular doxorubicin accumulation using doxorubicin as substrate at 1 uM incubated for 150 mins by microplate reader assay relative to DMSO; assay type: cell-based; details: 2.5 h
T4 sequence (P08183 whole entry H1195A): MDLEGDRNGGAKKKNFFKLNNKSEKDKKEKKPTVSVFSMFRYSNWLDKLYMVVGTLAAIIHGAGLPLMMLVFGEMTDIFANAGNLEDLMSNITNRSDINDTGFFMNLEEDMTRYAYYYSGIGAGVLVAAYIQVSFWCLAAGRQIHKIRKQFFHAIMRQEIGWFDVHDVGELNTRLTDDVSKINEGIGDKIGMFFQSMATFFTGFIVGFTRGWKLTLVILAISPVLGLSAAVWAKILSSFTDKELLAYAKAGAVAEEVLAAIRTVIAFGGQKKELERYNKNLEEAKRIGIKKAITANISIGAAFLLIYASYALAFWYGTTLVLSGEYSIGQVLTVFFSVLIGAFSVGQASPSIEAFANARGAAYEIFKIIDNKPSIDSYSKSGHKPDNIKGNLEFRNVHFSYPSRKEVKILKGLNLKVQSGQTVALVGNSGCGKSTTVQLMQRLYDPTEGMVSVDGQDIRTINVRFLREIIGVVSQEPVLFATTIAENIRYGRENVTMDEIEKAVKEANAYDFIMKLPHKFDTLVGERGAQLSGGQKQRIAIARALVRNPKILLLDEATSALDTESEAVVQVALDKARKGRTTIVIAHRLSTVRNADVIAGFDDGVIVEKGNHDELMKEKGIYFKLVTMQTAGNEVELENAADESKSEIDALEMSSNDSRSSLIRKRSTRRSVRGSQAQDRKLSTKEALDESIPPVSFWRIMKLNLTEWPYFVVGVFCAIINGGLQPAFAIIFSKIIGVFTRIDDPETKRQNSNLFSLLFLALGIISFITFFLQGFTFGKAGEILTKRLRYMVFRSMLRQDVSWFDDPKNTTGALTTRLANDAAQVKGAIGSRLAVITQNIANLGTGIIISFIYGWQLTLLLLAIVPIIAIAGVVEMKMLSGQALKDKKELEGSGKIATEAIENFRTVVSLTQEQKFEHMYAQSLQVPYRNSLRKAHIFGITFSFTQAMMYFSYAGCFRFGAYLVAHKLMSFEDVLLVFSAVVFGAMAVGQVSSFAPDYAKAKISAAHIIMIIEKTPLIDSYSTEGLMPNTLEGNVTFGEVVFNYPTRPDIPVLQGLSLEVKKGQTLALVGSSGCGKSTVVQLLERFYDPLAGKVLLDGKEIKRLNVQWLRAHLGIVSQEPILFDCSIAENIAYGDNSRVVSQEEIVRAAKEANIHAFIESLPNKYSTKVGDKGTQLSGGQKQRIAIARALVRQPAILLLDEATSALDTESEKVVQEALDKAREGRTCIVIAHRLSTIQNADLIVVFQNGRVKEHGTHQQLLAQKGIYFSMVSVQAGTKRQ

[9] = biological target: ATP-dependent translocase ABCB1 (Homo sapiens, UniProt P08183, I1115Y); test: Negative allosteric modulator activity at human P-gp I1115Y mutant expressed in HEK293FT cells assessed as increase in intracellular doxorubicin accumulation using doxorubicin as substrate at 1 uM incubated for 150 mins by microplate reader assay (reference value: 97.3 +/- 3.7 %); assay type: cell-based; details: 2.5 h
[10] = biological target: ATP-dependent translocase ABCB1 (Homo sapiens, UniProt P08183, G1114L); test: Negative allosteric modulator activity at human P-gp G1114L mutant expressed in HEK293FT cells assessed as increase in intracellular doxorubicin accumulation using doxorubicin as substrate at 1 uM incubated for 150 mins by microplate reader assay (reference value: 97.9 +/- 4.2 %); assay type: cell-based; details: 2.5 h
[11] = biological target: T2, ATP-dependent translocase ABCB1; test: Negative allosteric modulator activity at human P-gp Q1193C mutant expressed in HEK293FT cells assessed as increase in intracellular doxorubicin accumulation using doxorubicin as substrate at 1 uM incubated for 150 mins by microplate reader assay (reference value: 63 +/- 2.5 %); assay type: cell-based; details: 2.5 h
[12] = biological target: ATP-dependent translocase ABCB1 (Homo sapiens, UniProt P08183); test: Negative allosteric modulator activity at human wildtype P-gp expressed in HEK293FT cells assessed as increase in intracellular doxorubicin accumulation using doxorubicin as substrate at 1 uM incubated for 150 mins by microplate reader assay (reference value: 47.9 +/- 3.5 %); assay type: cell-based; details: 2.5 h
[13] = biological target: T2, ATP-dependent translocase ABCB1; test: Negative allosteric modulator activity at human P-gp Q1193C mutant expressed in HEK293FT cells assessed as reversal of P-gp mediated PTX resistance by measuring sensitivity fold change incubated for 5 days by MTS assay; assay type: cell-based; details: 120 h, time 5 day
[14] = biological target: T5, ATP-dependent translocase ABCB1 (Homo sapiens, UniProt P08183, Q1193F); test: Negative allosteric modulator activity at human P-gp Q1193F mutant expressed in HEK293FT cells assessed as reversal of P-gp mediated PTX resistance by measuring sensitivity fold change incubated for 5 days by MTS assay; assay type: cell-based; details: 120 h, time 5 day
T5 sequence (P08183 whole entry Q1193F): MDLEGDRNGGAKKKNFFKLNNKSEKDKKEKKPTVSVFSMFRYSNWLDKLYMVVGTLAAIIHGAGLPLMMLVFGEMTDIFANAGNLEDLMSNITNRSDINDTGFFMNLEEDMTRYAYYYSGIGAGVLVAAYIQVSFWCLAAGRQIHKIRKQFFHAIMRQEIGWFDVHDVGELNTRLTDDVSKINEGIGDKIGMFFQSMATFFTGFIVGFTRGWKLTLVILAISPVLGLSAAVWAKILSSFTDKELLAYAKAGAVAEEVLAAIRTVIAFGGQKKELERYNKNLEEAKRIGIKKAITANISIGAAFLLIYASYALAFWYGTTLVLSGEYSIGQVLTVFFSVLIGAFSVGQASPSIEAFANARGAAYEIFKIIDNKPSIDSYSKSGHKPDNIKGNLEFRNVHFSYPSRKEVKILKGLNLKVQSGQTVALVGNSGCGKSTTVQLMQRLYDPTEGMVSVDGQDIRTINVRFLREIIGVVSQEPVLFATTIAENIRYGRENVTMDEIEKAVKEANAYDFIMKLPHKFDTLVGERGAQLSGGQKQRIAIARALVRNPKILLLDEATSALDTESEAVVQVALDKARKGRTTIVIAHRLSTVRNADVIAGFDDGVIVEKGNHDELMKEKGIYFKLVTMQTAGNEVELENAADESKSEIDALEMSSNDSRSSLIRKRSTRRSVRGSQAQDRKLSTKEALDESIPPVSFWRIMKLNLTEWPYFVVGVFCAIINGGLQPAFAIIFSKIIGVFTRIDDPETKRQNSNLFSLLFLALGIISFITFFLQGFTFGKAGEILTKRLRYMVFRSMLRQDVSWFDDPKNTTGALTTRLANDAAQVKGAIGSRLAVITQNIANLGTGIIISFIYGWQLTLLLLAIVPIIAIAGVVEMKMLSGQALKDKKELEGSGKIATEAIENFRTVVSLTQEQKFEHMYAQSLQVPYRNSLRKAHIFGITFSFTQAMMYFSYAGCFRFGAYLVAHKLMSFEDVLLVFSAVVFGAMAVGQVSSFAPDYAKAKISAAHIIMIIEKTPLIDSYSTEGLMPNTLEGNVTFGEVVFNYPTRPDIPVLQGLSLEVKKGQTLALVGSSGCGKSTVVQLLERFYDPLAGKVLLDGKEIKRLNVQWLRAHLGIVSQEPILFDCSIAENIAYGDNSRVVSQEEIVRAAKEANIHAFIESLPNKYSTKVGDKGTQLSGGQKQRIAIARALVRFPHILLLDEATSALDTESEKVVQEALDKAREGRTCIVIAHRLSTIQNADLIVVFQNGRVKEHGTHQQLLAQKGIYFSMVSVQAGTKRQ

[15] = biological target: T3, ATP-dependent translocase ABCB1; test: Negative allosteric modulator activity at human P-gp L1113A mutant expressed in HEK293FT cells assessed as reversal of P-gp mediated PTX resistance by measuring sensitivity fold change incubated for 5 days by MTS assay; assay type: cell-based; details: 120 h, time 5 day
[16] = biological target: ATP-dependent translocase ABCB1 (Homo sapiens, UniProt P08183, Q1193E); test: Negative allosteric modulator activity at human P-gp Q1193E mutant expressed in HEK293FT cells assessed as reversal of P-gp mediated PTX resistance by measuring sensitivity fold change incubated for 5 days by MTS assay; assay type: cell-based; details: 120 h, time 5 day
[17] = biological target: ATP-dependent translocase ABCB1 (Homo sapiens, UniProt P08183, I1115K); test: Negative allosteric modulator activity at human P-gp I1115K mutant expressed in HEK293FT cells assessed as increase in intracellular doxorubicin accumulation using doxorubicin as substrate at 1 uM incubated for 150 mins by microplate reader assay (reference value: 97.8 +/- 3.1 %); assay type: cell-based; details: 2.5 h
[18] = biological target: T4, ATP-dependent translocase ABCB1; test: Negative allosteric modulator activity at human P-gp H1195A mutant expressed in HEK293FT cells assessed as increase in intracellular doxorubicin accumulation using doxorubicin as substrate at 1 uM incubated for 150 mins by microplate reader assay (reference value: 78.1 +/- 1.4 %); assay type: cell-based; details: 2.5 h
[19] = biological target: ATP-dependent translocase ABCB1 (Homo sapiens, UniProt P08183, I1115M); test: Negative allosteric modulator activity at human P-gp I1115M mutant expressed in HEK293FT cells assessed as fold change in intracellular doxorubicin accumulation using doxorubicin as substrate at 1 uM incubated for 150 mins by microplate reader assay relative to DMSO; assay type: cell-based; details: 2.5 h
[20] = biological target: T5, ATP-dependent translocase ABCB1; test: Negative allosteric modulator activity at human P-gp Q1193F mutant expressed in HEK293FT cells assessed as increase in intracellular doxorubicin accumulation using doxorubicin as substrate at 1 uM incubated for 150 mins by microplate reader assay (reference value: 64.7 +/- 2.6 %); assay type: cell-based; details: 2.5 h
[21] = biological target: ATP-dependent translocase ABCB1 (Homo sapiens, UniProt P08183, I1115F); test: Activation of P-gp ATPase activity in human P-gp I1115F mutant expressed in HEK293FT cell microsomes at 20 uM incubated for 1 hr in presence of ATP by Glo-luminescence based microplate reader assay (reference value: 0.21 +/- 0.05 pmol/min/microg); design: species or system Microsome

SMILES: O=c1cc(-c2ccc(OCCOCCNCc3ccccc3)cc2)oc2ccccc12
- fold change (FC) [1]: 62.4
- fold change (FC) [2]: 4.3
- fold change (FC) [3]: 1.3
- fold change (FC) [4]: 1.5
- fold change (FC) [5]: 9.4
- fold change (FC) [6]: 1.8
- fold change (FC) [7]: 1.1
- fold change (FC) [8]: 1.1
- Activity [9]: 96.4%
- Activity [10]: 95%
- Activity [11]: 81.4%
- Activity [12]: 90.1%
- fold change (FC) [13]: 12.4
- fold change (FC) [14]: 5.6
- fold change (FC) [15]: 140.5
- fold change (FC) [16]: 4.3
- Activity [17]: 100.1%
- Activity [18]: 83.9%
- fold change (FC) [19]: 1
- Activity [20]: 74.6%
- Activity [21]: 0.25 pmol/min/µg
